Tests used:
Type in all cases: cell-based
[1] = test system: COLO205 (colon); assay: Inhibition of cell proliferation, CellTiter-Glo, COLO205; settings: Homo sapiens, COLO 205, 72 h
In short: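 Exponentially growing COLO205 cells in medium with 10% FBS were plated below 2000 cells/well at 37 °C, 5% CO2. Untreated wells served as controls.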

[2] = target: T1, IR (NIH-3T3 cells over expressing human IGF-1R or IR) (Homo sapiens, UniProt P06213); assay: IR cellular autophosphorylation (DELFIA); settings: NIH-3T3 cells over expressing IR, insulin stimulated
T1 construct: expressed in transfected cells; host or cells: NIH-3T3 (mouse fibroblasts)
T1 sequence (P06213 28-1382): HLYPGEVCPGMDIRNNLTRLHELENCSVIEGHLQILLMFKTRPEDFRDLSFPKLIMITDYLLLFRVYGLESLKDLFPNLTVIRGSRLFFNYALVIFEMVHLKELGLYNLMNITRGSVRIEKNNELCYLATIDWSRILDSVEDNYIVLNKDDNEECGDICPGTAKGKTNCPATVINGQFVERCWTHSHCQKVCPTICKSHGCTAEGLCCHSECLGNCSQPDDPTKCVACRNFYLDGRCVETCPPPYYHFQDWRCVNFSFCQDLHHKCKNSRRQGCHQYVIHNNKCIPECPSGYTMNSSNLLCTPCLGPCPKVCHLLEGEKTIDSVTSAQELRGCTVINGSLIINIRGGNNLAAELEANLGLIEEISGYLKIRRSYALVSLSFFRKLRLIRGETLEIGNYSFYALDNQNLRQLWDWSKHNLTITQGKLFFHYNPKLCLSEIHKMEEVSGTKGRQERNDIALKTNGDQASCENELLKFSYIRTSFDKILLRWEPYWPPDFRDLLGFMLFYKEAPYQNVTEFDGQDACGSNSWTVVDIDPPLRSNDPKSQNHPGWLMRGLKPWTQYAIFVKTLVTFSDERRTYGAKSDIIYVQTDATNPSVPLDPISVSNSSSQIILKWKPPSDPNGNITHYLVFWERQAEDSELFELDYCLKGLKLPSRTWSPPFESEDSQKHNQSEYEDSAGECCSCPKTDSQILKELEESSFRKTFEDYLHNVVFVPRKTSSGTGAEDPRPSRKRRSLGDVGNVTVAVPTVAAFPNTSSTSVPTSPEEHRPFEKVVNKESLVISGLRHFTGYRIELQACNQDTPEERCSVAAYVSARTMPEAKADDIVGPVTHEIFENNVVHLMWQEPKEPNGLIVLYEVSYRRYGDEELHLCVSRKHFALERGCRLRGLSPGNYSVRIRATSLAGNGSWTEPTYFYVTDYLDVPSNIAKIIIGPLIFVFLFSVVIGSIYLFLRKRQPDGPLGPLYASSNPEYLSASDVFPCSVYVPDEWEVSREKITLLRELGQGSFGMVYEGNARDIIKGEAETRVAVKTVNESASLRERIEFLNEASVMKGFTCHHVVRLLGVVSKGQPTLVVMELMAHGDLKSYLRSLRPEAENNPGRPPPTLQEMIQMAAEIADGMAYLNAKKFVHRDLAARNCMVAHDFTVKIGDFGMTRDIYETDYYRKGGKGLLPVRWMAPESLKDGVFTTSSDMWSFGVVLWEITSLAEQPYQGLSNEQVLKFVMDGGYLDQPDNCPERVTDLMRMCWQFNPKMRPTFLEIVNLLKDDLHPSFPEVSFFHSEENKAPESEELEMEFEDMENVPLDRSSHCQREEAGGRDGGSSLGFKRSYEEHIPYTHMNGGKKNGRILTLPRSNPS
In short: (§1)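 Receptor-overexpressing NIH-3T3, 10% FBS, 37 °C; cpd 30 uM–1.5 nM × 2 h; stim IGF-1 30 ng/mL (IGF-1R) or insulin 3 ug/mL (IR), 15 min; lysate DELFIA, Eu anti-pTyr; % of stimulated signal.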

[3] = test system: NCI-H929 (multiple myeloma); assay: Inhibition of cell proliferation, CellTiter-Glo, NCI-H929; settings: Homo sapiens, 72 h
Experimental: C. Inhibition of Cell Proliferation
Cell proliferation was measured by either CellTiter-Glo (measures cellular ATP level as a surrogate for total cell number) or by InCell analyzer (counts number of nuclei as a measure of cell number). For CellTiter-Glo assay, exponentially growing cell lines of different tumor origins, cultured in appropriate media containing 10% fetal bovine serum at 37° C. in a 5% CO2 incubator, were plated at low density (less than 2000 cells/well) in 96-well plates. Twenty four hours post-plating, cells were treated with different concentrations of test compounds ranging from 30 uM to 1.5 nM. Several wells were left untreated as a control. Seventy two hours post-treatment, cell numbers were determined using 50-100 ul per well of CellTiter-Glo (Promega #G7573). Plates were incubated at 37° C. for 30 minutes and the chemiluminescent signal was read on the Victor V or Envison 2100 reader. […]

[4] = target: T2, human IGF-1R (NIH-3T3 cells over expressing human IGF-1R) (Homo sapiens, UniProt P08069); assay: IGF-1R cellular autophosphorylation (DELFIA); settings: IGF-1 stimulated
T2 construct: expressed in transfected cells; host or cells: NIH-3T3 (mouse fibroblasts)
T2 sequence (P08069 31-1367): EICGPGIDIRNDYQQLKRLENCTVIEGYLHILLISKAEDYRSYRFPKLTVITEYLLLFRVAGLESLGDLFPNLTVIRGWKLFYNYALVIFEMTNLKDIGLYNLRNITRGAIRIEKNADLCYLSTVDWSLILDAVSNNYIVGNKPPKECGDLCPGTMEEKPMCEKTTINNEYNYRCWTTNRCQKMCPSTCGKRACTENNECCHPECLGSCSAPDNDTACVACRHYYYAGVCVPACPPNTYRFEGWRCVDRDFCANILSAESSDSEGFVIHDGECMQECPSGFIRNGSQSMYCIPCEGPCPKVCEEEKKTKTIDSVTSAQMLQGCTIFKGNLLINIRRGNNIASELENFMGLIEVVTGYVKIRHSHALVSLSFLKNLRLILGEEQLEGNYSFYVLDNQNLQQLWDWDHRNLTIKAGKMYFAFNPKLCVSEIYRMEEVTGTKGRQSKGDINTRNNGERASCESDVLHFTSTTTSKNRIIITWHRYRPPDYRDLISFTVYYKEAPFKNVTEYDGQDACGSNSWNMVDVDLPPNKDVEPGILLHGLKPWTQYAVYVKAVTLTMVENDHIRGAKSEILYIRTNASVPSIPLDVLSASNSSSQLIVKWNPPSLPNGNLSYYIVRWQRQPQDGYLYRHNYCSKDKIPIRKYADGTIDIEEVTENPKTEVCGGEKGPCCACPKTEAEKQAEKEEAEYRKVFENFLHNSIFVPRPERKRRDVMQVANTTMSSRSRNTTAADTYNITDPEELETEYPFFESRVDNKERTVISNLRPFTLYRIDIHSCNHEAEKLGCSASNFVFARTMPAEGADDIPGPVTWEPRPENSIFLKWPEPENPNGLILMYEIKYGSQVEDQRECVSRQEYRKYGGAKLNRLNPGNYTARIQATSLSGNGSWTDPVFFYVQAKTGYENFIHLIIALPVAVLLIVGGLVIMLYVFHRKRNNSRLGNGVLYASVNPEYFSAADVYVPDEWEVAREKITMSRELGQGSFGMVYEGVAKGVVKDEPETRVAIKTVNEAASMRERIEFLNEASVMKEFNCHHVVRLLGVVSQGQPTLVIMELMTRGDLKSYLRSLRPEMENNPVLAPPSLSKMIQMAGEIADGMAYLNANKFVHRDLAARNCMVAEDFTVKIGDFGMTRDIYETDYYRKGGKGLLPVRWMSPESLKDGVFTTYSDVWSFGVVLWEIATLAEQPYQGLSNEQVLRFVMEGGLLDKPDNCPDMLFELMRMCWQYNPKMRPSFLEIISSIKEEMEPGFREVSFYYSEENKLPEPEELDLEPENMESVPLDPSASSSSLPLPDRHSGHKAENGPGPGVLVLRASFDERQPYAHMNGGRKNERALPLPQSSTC
In short: as §1

Row | Structure (SMILES) | IC50 [1] [nM] | IC50 [2] [nM] | IC50 [3] [nM] | IC50 [4] [nM]
1 | COCCN1CCN(c2cc(OC)c(Nc3nccc(-c4c(-c5cccc(C(=O)Nc6c(F)cccc6F)c5)nc5ccccn45)n3)cc2C)CC1 [Example 243, N-(2,6-difluorophenyl)-3-(3-{2-[(5-methyl-2-(methyloxy)-4-{4-[2-(methyloxy)ethyl]-1-piperazinyl}phenyl)amino]-4-pyrimidinyl}imidazo[1,2-a]pyridin-2-yl)benzamide] | 250 to 1000 | < 100 | < 250 | < 100
2 | CCOc1cc(C2CCN(CCS(C)(=O)=O)CC2)ccc1Nc1nccc(-c2c(-c3ccc(OCC)c(C(=O)Nc4c(F)cccc4F)c3)nc3ccccn23)n1 [Example 185, N-(2,6-difluorophenyl)-2-(ethyloxy)-5-(3-{2-[(2-(ethyloxy)-4-{1-[2-(methylsulfonyl)ethyl]-4-piperidinyl}phenyl)amino]-4-pyrimidinyl}imidazo[1,2-a]pyridin-2-yl)benzamide] | < 250 | < 100 | < 250 | < 100
3 | CCOc1ccc(-c2nc3ccccn3c2-c2ccnc(Nc3ccc(N4CCN(C(C)C)CC4)cc3OC)n2)cc1C(=O)Nc1c(F)cccc1F [Example 177, N-(2,6-difluorophenyl)-2-(ethyloxy)-5-[3-(2-{[4-[4-(1-methylethyl)-1-piperazinyl]-2-(methyloxy)phenyl]amino}-4-pyrimidinyl)imidazo[1,2-a]pyridin-2-yl]benzamide] | 250 to 1000 | < 100 | < 250 | < 100
4 | CCOc1cc(C2CCN(CCS(C)(=O)=O)CC2)ccc1Nc1nccc(-c2c(-c3ccc(OC)c(C(=O)Nc4c(F)cccc4F)c3)nc3ccccn23)n1 [Example 184, N-(2,6-difluorophenyl)-5-(3-{2-[(2-(ethyloxy)-4-{1-[2-(methylsulfonyl)ethyl]-4-piperidinyl}-phenyl)amino]-4-pyrimidinyl}imidazo[1,2-a]pyridin-2-yl)-2-(methyloxy)benzamide] | < 250 | – | < 250 | –
5 | CCOc1cc(C2CCN(CCS(C)(=O)=O)CC2)ccc1Nc1nccc(-c2c(-c3ccc(OC(C)C)c(C(=O)Nc4c(F)cccc4F)c3)nc3ccccn23)n1 [Example 186, N-(2,6-difluorophenyl)-5-(3-{2-[(2-(ethyloxy)-4-{1-[2-(methylsulfonyl)ethyl]-4-piperidinyl}phenyl)amino]-4-pyrimidinyl}imidazo[1,2-a]pyridin-2-yl)-2-[(1-methylethyl)oxy]benzamide] | < 250 | – | < 250 | –
6 | COc1cc(N2CCC(N3CCN(CCS(C)(=O)=O)CC3)CC2)c(C)cc1Nc1nccc(-c2c(-c3cccc(C(=O)Nc4c(F)cccc4F)c3)nc3ccccn23)n1 [Example 115, N-(2,6-difluorophenyl)-3-[3-(2-{[5-methyl-2-(methyloxy)-4-(4-{4-[2-(methylsulfonyl)ethyl]-1-piperazinyl}-1-piperidinyl)phenyl]amino]-4-pyrimidinyl)imidazo[1,2-a]pyridin-2-yl]benzamide] | 250 to 1000 | – | < 250 | –
7 | CCOc1cc(N2CCC(N3CCN(S(C)(=O)=O)CC3)CC2)c(CC)cc1Nc1nccc(-c2c(-c3ccc(OCC)c(C(=O)Nc4c(F)cccc4F)c3)nc3ccccn23)n1 [Example 205, N-(2,6-difluorophenyl)-5-(3-{2-[(5-ethyl-2-(ethyloxy)-4-{4-[4-(methylsulfonyl)-1-piperazinyl]-1-piperidinyl}phenyl)amino]-4-pyrimidinyl}imidazo[1,2-a]pyridin-2-yl)-2-(ethyloxy)benzamide] | < 250 | – | < 250 | –
8 | COc1cc(N2CCC(CCS(C)(=O)=O)CC2)ccc1Nc1nccc(-c2c(-c3ccc(OC)c(C(=O)Nc4c(F)cccc4F)c3)nc3cc(F)ccn23)n1 [Example 216, N-(2,6-difluorophenyl)-5-(7-fluoro-3-{2-[(2-(methyloxy)-4-{4-[2-(methylsulfonyl)ethyl]-1-piperidinyl}phenyl)amino]-4-pyrimidinyl}imidazo[1,2-a]pyridin-2-yl)-2-(methyloxy)benzamide] | 250 to 1000 | – | < 250 | –
9 | COc1cc(N2CCC(CCS(C)(=O)=O)CC2)c(C)cc1Nc1nccc(-c2c(-c3cccc(C(=O)Nc4c(F)cccc4F)c3)nc3ccccn23)n1 [Example 231, N-(2,6-difluorophenyl)-3-(3-{2-[(5-methyl-2-(methyloxy)-4-{4-[2-(methylsulfonyl)ethyl]-1-piperidinyl}phenyl)amino]-4-pyrimidinyl}imidazo[1,2-a]pyridin-2-yl)benzamide] | – | < 100 | < 250 | < 100
10 | CCOc1cc(N2CCN(CCS(C)(=O)=O)CC2)c(C)cc1Nc1nccc(-c2c(-c3ccc(OC)c(C(=O)Nc4c(F)cccc4F)c3)nc3ccccn23)n1 [Example 247, N-(2,6-difluorophenyl)-5-(3-{2-[(2-(ethyloxy)-5-methyl-4-[4-[2-(methylsulfonyl)ethyl]-1-piperazinyl}phenyl)amino]-4-pyrimidinyl}imidazo[1,2-a]pyridin-2-yl)-2-(methyloxy)benzamide] | < 250 | – | < 250 | –
11 | COc1cc(N2CCC(CCS(C)(=O)=O)CC2)c(C)cc1Nc1nccc(-c2c(-c3ccc(OC)c(C(=O)Nc4c(F)cccc4F)c3)nc3cc(F)ccn23)n1 [Example 220, N-(2,6-difluorophenyl)-5-(7-fluoro-3-{2-[(5-methyl-2-(methyloxy)-4-{4-[2-(methylsulfonyl)ethyl]-1-piperidinyl}phenyl)amino]-4-pyrimidinyl}imidazo[1,2-a]pyridin-2-yl)-2-(methyloxy)benzamide] | 250 to 1000 | – | < 250 | –
12 | CN(C)CCOc1cccc(Nc2nccc(-c3c(-c4cccc(C(=O)Nc5c(F)cc(F)cc5F)c4)nc4ccccn34)n2)c1 [Example 12, 3-(3-{2-[(3-{[2-(dimethylamino)ethyl]oxy}phenyl)amino]-4-pyrimidinyl}imidazo[1,2-a]pyridin-2-yl)-N-(2,4,6-trifluorophenyl)benzamide] | 250 to 1000 | – | < 250 | 100 to 500
13 | CCOc1cc(N2CCN(CCS(C)(=O)=O)CC2)c(C)cc1Nc1nccc(-c2c(-c3ccc(OC(C)C)c(C(=O)Nc4c(F)cccc4F)c3)nc3ccccn23)n1 [Example 249, N-(2,6-difluorophenyl)-5-(3-{2-[(2-(ethyloxy)-5-methyl-4-{4-[2-(methylsulfonyl)ethyl]-1-piperazinyl}phenyl)amino]-4-pyrimidinyl}imidazo[1,2-a]pyridin-2-yl)-2-[(1-methylethyl)oxy]benzamide] | < 250 | – | < 250 | –
14 | COc1cc(C2CCN(CCS(C)(=O)=O)CC2)ccc1Nc1nccc(-c2c(-c3ccc(OC)c(C(=O)Nc4c(F)cccc4F)c3)nc3ccccn23)n1 [Example 181, N-(2,6-difluorophenyl)-2-(methyloxy)-5-(3-{2-[(2-(methyloxy)-4-{1-[2-(methylsulfonyl)ethyl]-4-piperidinyl}phenyl)amino]-4-pyrimidinyl}imidazo[1,2-a]pyridin-2-yl)benzamide] | 250 to 1000 | – | < 250 | –
15 | COc1cc(N2CCC(N3CCCCC3)CC2)ccc1Nc1nccc(-c2c(-c3cccc(C(=O)Nc4c(F)cccc4F)c3)nc3cc(C(F)(F)F)ccn23)n1 [Example 191, 3-[3-(2-{[4-(1,4′-bipiperidin-1′-yl)-2-(methyloxy)phenyl]amino}-4-pyrimidinyl)-7-(trifluoromethyl)imidazo[1,2-a]pyridin-2-yl]-N-(2,6-difluorophenyl)benzamide] | > 1000 | – | > 1000 | –
16 | CCOc1cc(N2CCC(CCS(C)(=O)=O)CC2)c(C)cc1Nc1nccc(-c2c(-c3ccc(OC)c(C(=O)Nc4c(F)cccc4F)c3)nc3cc(F)ccn23)n1 [Example 218, N-(2,6-difluorophenyl)-5-(3-{2-[(2-(ethyloxy)-5-methyl-4-{4-[2-(methylsulfonyl)ethyl]-1-piperidinyl}phenyl)amino]-4-pyrimidinyl}-7-fluoroimidazo[1,2-a]pyridin-2-yl)-2-(methyloxy)benzamide] | 250 to 1000 | – | < 250 | –
17 | CCOc1ccc(-c2nc3ccccn3c2-c2ccnc(Nc3ccc(C4CCN(CCS(C)(=O)=O)CC4)cc3OC)n2)cc1C(=O)Nc1c(F)cccc1F [Example 182, N-(2,6-difluorophenyl)-2-(ethyloxy)-5-(3-{2-[(2-(methyloxy)-4-{1-[2-(methylsulfonyl)ethyl]-4-piperidinyl}phenyl)amino]-4-pyrimidinyl}imidazo[1,2-a]pyridin-2-yl)benzamide] | < 250 | – | < 250 | –
18 | COc1cc(N2CCC(N3CCCCC3)CC2)ccc1Nc1nccc(-c2c(-c3cccc(C(=O)Nc4ccc(Cl)cc4F)c3)nc3ccccn23)n1 [Example 45, 3-[3-(2-{[4-(1,4′-bipiperidin-1′-yl)-2-(methyloxy)phenyl]amino}-4-pirimidinyl)imidazo[1,2-a]pyridin-2-yl]-N-(4-chloro-2-fluorophenyl)benzamide] | 250 to 1000 | 100 to 500 | – | < 100
